Reference: paper PMC12948427 (The Journal of Clinical Investigation, 2025)
Several values for one entry are separate records, joined by “and”; a condition that tells them apart may be missing. Equal values may be shown once. Read-outs that look alike come from different tables or passages of the source.

Assays:
[1] = system: SARS-CoV-2 wild-type; experiment: microbe, parasite or virus in culture; type: cell-based; settings: Severe acute respiratory syndrome coronavirus 2, 24 h, read-out: EC50 (IFA)
[2] = system: HCoV-NL63; experiment: In vitro antiviral activity assay (IFA), HCoV-NL63; type: cell-based; settings: for Inhibition rate (IFA): Fig 5C, MOI 0.1, 48 h
[3] = system: HCoV-OC43; experiment: In vitro antiviral activity assay (IFA), HCoV-OC43; type: cell-based; settings: for Inhibition rate (IFA): Fig 5E, MOI 0.1, 48 h
[4] = system: HCoV-OC43; experiment: Infection of ALI-cultured primary HBEs, HCoV-OC43; type: cell-based
Protocol: (§1) Primary HBEs at passage 3 or earlier were seeded at a density of 40,000 cells per well in Transwell inserts (Costar 6.5 mm Transwell, 0.4 μm Pore Polyester Membrane Inserts, catalog 3470) for expansion culture. The cells were cultured in expansion medium (PneumaCult-Ex Plus Medium, catalog 05040) until tight junctions were formed. Once tight junctions were established, the expansion medium in the upper chamber was discarded, and the medium in the lower chamber was replaced with ALI differentiation medium (PneumaCult-ALI Medium, catalog 05001). Cells were maintained under ALI conditions, with the medium being changed every 2 days. The differentiation process was carried out for 21 days, during which cell morphology and differentiation status were monitored. The fully differentiated cells were infected with HCoV-OC43, HCoV-229E, HCoV-NL63, or SARS-CoV-2 (MOI = 1), and fresh medium was changed 1 hour postinfection. Specific peptide was added into the medium every 24 hours. At 96 hours postinfection, cells in Transwell inserts were washed with 140 μL PBS per insert, and the wash fluid was collected to extract virus RNA followed by RT-qPCR. […] The fluorescence was measured using ImageJ (NIH).

[5] = system: HCoV-NL63; experiment: Infection of ALI-cultured primary HBEs, HCoV-NL63; type: cell-based
Protocol: as §1

[6] = system: WIV1; type: cell-based, bat coronavirus WIV1
[7] = system: HCoV-OC43 VLP; type: cell-based
[8] = system: MHV; experiment: TEM of MHV-infected 17Cl-1 cells (virions, DMVs); type: cell-based, mouse hepatitis virus (MHV)
Protocol: WT or Hgs-KO 17Cl-1 cells were grown on ACLAR films and infected with MHV. At 24 hpi the cells were rinsed with PBS and then fixed with 2.5% glutaraldehyde in PBS overnight. The fixed cells were rinsed with 0.1 M PB 2 times and then double-distilled water 2 times, each time for 6 minutes. They were submerged in an aqueous solution containing 1% osmium tetraoxide and 1.5% potassium ferricyanide for 1.5 hours and then rinsed with double-distilled water 3 times, each time for 6 minutes. The samples underwent a dehydration process in which the solution submerging the samples was sequentially replaced by 30%, 50%, 70%, 80%, 90%, 100%, 100%, and 100% ethanol solutions, with each solution submerging the sample for 6 minutes. The samples were then infiltrated sequentially with 100% acetone for 6 minutes 2 times, 3:1 acetone/EMbed 812 resin for 1 hour, 1:1 acetone/EMbed 812 resin for 2 hours, 1:3 acetone/EMbed 812 resin for 3 hours, and 100% EMbed 812 resin for 12 hours 2 times. The samples were embedded in EMbed 812 resin and underwent solidification at 45°C for 12 hours and then 60°C for 48 hours. Sectioning was performed with a Leica EM UC6 ultramicrotome. The sections were stained with 2% uranyl acetate for 15 minutes and 1% lead citrate for 5 minutes. Electron micrographs were acquired with an FEI Tecnai Spirit 120 kV transmission electron microscope operating at 100 kV accelerating voltage.

[9] = system: MHV; type: cell-based, mouse hepatitis virus (MHV)
[10] = system: MHV; type: cell-based, mouse hepatitis virus (MHV); settings: for Inhibition, combination matrix (Figure S12C): Molnupiravir 0 uM; for Inhibition, combination matrix (Figure S12D): nirmatrelvir 0 uM
[11] = system: 17Cl-1 cells
[12] = system: Calu-3 cells
[13] = Tolerability of RTB in mice; settings: high concentrations (500 mg/kg)
[14] = TEM, RTB-treated versus DMSO, sheet does not name what is scored

CCCC(=O)OC[C@@H](OC(=O)CCC)[C@@H](OC(=O)CCC)[C@H](Cn1c2nc(=O)[nH]c(=O)c-2nc2cc(C)c(C)cc21)OC(=O)CCC [RTB, riboflavin tetrabutyrate]
EC50 [1]: 14.8 µM | Inhibition rate (IFA) ([2]; conc 30 (unit not given)): -14.9284% and -12.1937% and -12.3632% | Inhibition rate (IFA) ([2]; conc 100 (unit not given)): -16.9149% and -18.5591% and -23.768% | Inhibition rate (IFA) ([2]; conc 1000 (unit not given)): -12.8364% and -7.587% and -17.221% | Inhibition rate (IFA) ([2]; conc 10000 (unit not given)): 59.7114% and 61.0537% and 58.023% | Inhibition rate (IFA) ([2]; conc 25000 (unit not given)): 99.7675% and 100.17% and 100.28% | EC50 ([2]; Human coronavirus NL63, 48 h, read-out: EC50 (IFA)): 8.46 µM | EC50 ([3]; Betacoronavirus 1, OC43, 48 h, read-out: EC50 (IFA)): 13.9 µM | Inhibition rate (IFA) ([3]; conc 10 (unit not given)): 33.23% and 29.76% and 39.01% | Inhibition rate (IFA) ([3]; conc 30 (unit not given)): 30.69% and 22.69% and 29.93% | Inhibition rate (IFA) ([3]; conc 100 (unit not given)): 21.56% and 24.49% and 30.14% | Inhibition rate (IFA) ([3]; conc 300 (unit not given)): 23.53% and 24.32% and 29.19% | Inhibition rate (IFA) ([3]; conc 1000 (unit not given)): 26.08% and 27.96% and 36.83% | Inhibition rate (IFA) ([3]; conc 3000 (unit not given)): 25.37% and 28.07% and 29.03% | Inhibition rate (IFA) ([3]; conc 10000 (unit not given)): 32.25% and 33.08% and 32.48% | Inhibition rate (IFA) ([3]; conc 25000 (unit not given)): 79.43% and 69.76% and 58.83% | extracellular viral gRNA levels (RT-qPCR) ([4]; Fig 5I, HCoV-OC43 MOI = 1, ALI-cultured HBEs, 96 h, RTB dose 5 (unit not given)): 24 and 18 and 15 | inhibition of infection in ALI cultures of HBEs ([4]; HCoV-OC43): significant, dose-dependent inhibition | extracellular viral gRNA levels (RT-qPCR) ([5]; Fig 5J, HCoV-NL63 MOI = 1, ALI-cultured HBEs, 96 h, RTB dose 5 (unit not given)): 46 and 42 and 25 | inhibition of infection in ALI cultures of HBEs ([5]; HCoV-NL63): significant, dose-dependent inhibition | inhibition of infection in ALI cultures of HBEs [6]: significant, dose-dependent inhibition | VLPs' release [7]: concentration-dependent inhibition | DMVs, the replication organelles (TEM) ([8]; 25 μM, MHV-infected 17Cl-1, hpi = 24 h): not significantly changed | intracellular mature virions (TEM) ([8]; 25 μM, MHV-infected 17Cl-1, hpi = 24 h, compared with DMSO): significantly decreased | Negative (count, Figure 7G) ([8]; RTB-treated, DMSO: 19): 2 | Positive (count, Figure 7G) ([8]; RTB-treated, DMSO: 41): 58 | Negative (number of cells counted, Figure 7H) [8, 14]: 37 | Positive (number of cells counted, Figure 7H) [8, 14]: 23 | Extracellular MHV gRNA (Figure S11A) ([9]; Ctr 17Cl-1 cells, 24 hpi): 2.752 and 2.754 and 2.756 | Extracellular MHV gRNA (Figure S11A) ([9]; Ctr 17Cl-1 cells, 48 hpi): 3.4199 and 3.426 and 3.424 | Extracellular MHV gRNA (Figure S11A) ([9]; Ctr 17Cl-1 cells, 72 hpi): 4.001 and 4.062 and 3.972 | Extracellular MHV gRNA (Figure S11A) ([9]; Hgs-KO1 17Cl-1 cells, 24 hpi): 1.499 and 1.531 and 1.548 | Extracellular MHV gRNA (Figure S11A) ([9]; Hgs-KO1 17Cl-1 cells, 48 hpi): 1.985 and 1.987 and 1.914 | Extracellular MHV gRNA (Figure S11A) ([9]; Hgs-KO1 17Cl-1 cells, 72 hpi): 3.343 and 3.307 and 3.373 | Extracellular MHV gRNA (Figure S11A) ([9]; Hgs-KO2 17Cl-1 cells, 24 hpi): 1.087 and 1.162 and 1.202 | Extracellular MHV gRNA (Figure S11A) ([9]; Hgs-KO2 17Cl-1 cells, 48 hpi): 1.5876 and 1.652 and 1.594 | Extracellular MHV gRNA (Figure S11A) ([9]; Hgs-KO2 17Cl-1 cells, 72 hpi): 2.484 and 2.493 and 2.452 | antiviral activity in Hgs-KO cells ([9]; MHV, Hgs-KO 17Cl-1, RTB 25 μM or RDV 5 μM, compared with DMSO-treated Hgs-KO cells): failed to inhibit viral infection | Inhibition, combination matrix (Figure S12C) ([10]; RTB 0.01 uM): -3.196 | Inhibition, combination matrix (Figure S12D) ([10]; RTB 0.01 uM): 0.02357 | Inhibition, combination matrix (Figure S12C) ([10]; RTB 0.03 uM): 0.4191 | Inhibition, combination matrix (Figure S12D) ([10]; RTB 0.03 uM): 0.6847 | Inhibition, combination matrix (Figure S12C) ([10]; RTB 0.1 uM): 5.187 | Inhibition, combination matrix (Figure S12D) ([10]; RTB 0.1 uM): 4.267 | Inhibition, combination matrix (Figure S12C) ([10]; RTB 0.3 uM): 0.1333 | Inhibition, combination matrix (Figure S12D) ([10]; RTB 0.3 uM): 7.699 | Inhibition, combination matrix (Figure S12C) ([10]; RTB 1 uM): 5.1 | Inhibition, combination matrix (Figure S12D) ([10]; RTB 1 uM): 9.0154 | Inhibition, combination matrix (Figure S12C) ([10]; RTB 3 uM): 12.0762 | Inhibition, combination matrix (Figure S12D) ([10]; RTB 3 uM): 25.2258 | Inhibition, combination matrix (Figure S12C) ([10]; RTB 10 uM): 64.6863 | Inhibition, combination matrix (Figure S12D) ([10]; RTB 10 uM): 39.9859 | Inhibition, combination matrix (Figure S12C) ([10]; RTB 25 uM): 94.0563 | Inhibition, combination matrix (Figure S12D) ([10]; RTB 25 uM): 93.5156 | combination effect in vitro ([10]; combined with molnupiravir): additive effects | combination effect in vitro ([10]; combined with nirmatrelvir): additive effects | cell viability, Figure S9C ([11]; concentration 100): 97.7719 and 100.641 and 97.299 | cell viability, Figure S9C ([11]; concentration 200): 98.9701 and 100.61 and 98.3395 | cell viability, Figure S9C ([11]; concentration 500): 100.294 and 99.5691 and 98.0557 | cell viability, Figure S9C ([11]; concentration 1000): 100.137 and 99.6952 and 100.704 | cell viability, Figure S9C ([11]; concentration 2000): 101.366 and 100.294 and 100.61 | cell viability, Figure S9C ([11]; concentration 5000): 101.555 and 101.524 and 100.673 | cell viability, Figure S9C ([11]; concentration 10000): 99.979 and 101.24 and 100.294 | cell viability, Figure S9C ([11]; concentration 20000): 99.506 and 99.1907 and 98.4025 | cell viability, Figure S9N ([12]; concentration 100): 105.852 and 107.383 and 107.23 | cell viability, Figure S9N ([12]; concentration 200): 101.565 and 101.412 and 100.391 | cell viability, Figure S9N ([12]; concentration 500): 101.157 and 97.3801 and 98.3498 | cell viability, Figure S9N ([12]; concentration 1000): 97.9415 and 98.4518 and 97.0228 | cell viability, Figure S9N ([12]; concentration 2000): 101.616 and 101.361 and 95.2365 | cell viability, Figure S9N ([12]; concentration 5000): 102.331 and 100.647 and 99.932 | cell viability, Figure S9N ([12]; concentration 10000): 101.31 and 101.055 and 99.5747 | cell viability, Figure S9N ([12]; concentration 20000): 107.281 and 106.312 and 107.792 | cytotoxicity or adverse effects in mice [13]: no cytotoxicity or adverse effects
